Test results as given in patent US11951167B2, “Targeted liposomes” (GEORGETOWN UNIVERSITY, priority 2012, dated 2024).
Blank lines part the entries; values can stand above or below the compound they belong to.

Legend:
[1] = tested on: HT-29 cells; experiment: XTT cell viability, IH formulations; type: cell-based; details: Homo sapiens, 24 h
Procedure: (§1) After 24 hours, the media was replaced with serum-free medium, overlaid with 100 μL of increasing concentrations of either scL-IH nanocomplex, prepared as described above in Example 26, unliganded nanocomplex (L-IH), free IH or LipA only in serum-free medium. The cells were, incubated for 5 hours and then supplemented with FBS. […] The IC50 was interpolated from the graph of the log of drug concentration versus the fraction of surviving cells.

[2] = tested on: Hep G2 cells; experiment: XTT cell viability, IH formulations; type: cell-based, human
Procedure: as §1

[3] = tested on: PANC-1 cells; experiment: XTT cell viability, IH formulations; type: cell-based, human
Procedure: as §1

[4] = tested on: HT-29 xenograft tumors; experiment: Anti-tumor efficacy in subcutaneous colon xenografts; type: in vivo, athymic nude mice
Procedure: In our initial in vivo experiment, we assessed the anti-tumor efficacy of various molar ratios of liposome to IH. Tumors of human colon tumor cell line HT-29 were induced in female athymic nude mice (5-10 animals/group) by the subcutaneous injection of 3.12×10^5 cells/site/mouse suspended in Matrigel® collagen basement solution. When the tumors reached ˜100 mm^3 treatment was initiated. […] Groups of animals were also treated with Free IH, scL without IH, the nanocomplex without the targeting moiety (Lip-IH), as well as a group of untreated mice. The mice were IV injected twice weekly to a total of 15 injections. […] Thus, in the remainder of the studies the optimal ratio of 1:1 (Liposome:IH) was used in preparation of the scL-IH nanocomplex. […] Here also the mice received a total of 15 intravenous injections.

[5] = tested on: KMS-11 cells; experiment: Cell viability by Trypan Blue counting, MEL formulations; type: cell-based; details: Homo sapiens, KMS-11, 48 h
Procedure: The size of the scL-MEL nanocomplex was 45 and 57 nm, respectively.
For these in vitro cell survival studies, the human multiple myeloma cell line KMS-11 was used. These are non-adherent cells and grow in suspension. 4×10^5 cells in 2.6 ml of serum free media were incubated in a sterile 50 ml centrifuge tube with 400 ul of the scL-MEL (at either ratio) or unencapsulated MEL for one hour. Following this incubation, the medium was supplemented with fetal bovine serum to a final concentration of 10% (0.3 ml/tube). After incubation for an additional 47 h, cell viability was determined by Trypan Blue counting of the cells. To accomplish this, one part trypan blue solution is mixed with 1 part cell suspension (1:1 dilution) in a 2 mL eppendorf tube (e.g. 200 μL trypan blue is mixed with 200 μL cell suspension). Using a hemacytometer and a microscope the number of viable cells (unstained) and dead cells (stained) are counted. The average number of cells per 0.1 mm^3 is calculated and the number of cells per mL determined. The percent of viable cells is calculated as follows: Viable Cells %=(Number of viable cells/Number of Cells)*100
This complex was subsequently lyophilized and the samples stored in a desiccator at 2-8° C. After one week of storage the lyophilized scL-Mel complex was reconstituted with endotoxin free water and used to transfect KMS-11 cells as described above. […]

[6] = tested on: KMS-11 cells; experiment: Cell viability, MEL or scL-MEL combined with scL-p53; type: cell-based; details: Homo sapiens, scL-p53 DNA dose 0.2 ug/4×10^5 cells in the combination
Procedure: Cells (4×10^5 per tube) were transfected with different scL/MEL complexes containing increasing doses of MEL. The scL-p53 was prepared as previously described (U.S. Pat. No. 7,780,822). The DNA dose used for all transfections was 0.2 ug/4×10^5 cells. […] The IC20 was used to allow detection of an additive or synergistic effect of the two treatments. The KMS-11 cells were transfect with Free (unencapsulated) MEL alone, scL-MEL alone, or the combination of Free (unencapsulated) or scL encapsulated MEL plus scL-p53 (FIG. 37).

[7] = target: T1, topoisomerase I (Homo sapiens, UniProt P11387); details: cited from earlier work
T1 sequence (P11387 1-765): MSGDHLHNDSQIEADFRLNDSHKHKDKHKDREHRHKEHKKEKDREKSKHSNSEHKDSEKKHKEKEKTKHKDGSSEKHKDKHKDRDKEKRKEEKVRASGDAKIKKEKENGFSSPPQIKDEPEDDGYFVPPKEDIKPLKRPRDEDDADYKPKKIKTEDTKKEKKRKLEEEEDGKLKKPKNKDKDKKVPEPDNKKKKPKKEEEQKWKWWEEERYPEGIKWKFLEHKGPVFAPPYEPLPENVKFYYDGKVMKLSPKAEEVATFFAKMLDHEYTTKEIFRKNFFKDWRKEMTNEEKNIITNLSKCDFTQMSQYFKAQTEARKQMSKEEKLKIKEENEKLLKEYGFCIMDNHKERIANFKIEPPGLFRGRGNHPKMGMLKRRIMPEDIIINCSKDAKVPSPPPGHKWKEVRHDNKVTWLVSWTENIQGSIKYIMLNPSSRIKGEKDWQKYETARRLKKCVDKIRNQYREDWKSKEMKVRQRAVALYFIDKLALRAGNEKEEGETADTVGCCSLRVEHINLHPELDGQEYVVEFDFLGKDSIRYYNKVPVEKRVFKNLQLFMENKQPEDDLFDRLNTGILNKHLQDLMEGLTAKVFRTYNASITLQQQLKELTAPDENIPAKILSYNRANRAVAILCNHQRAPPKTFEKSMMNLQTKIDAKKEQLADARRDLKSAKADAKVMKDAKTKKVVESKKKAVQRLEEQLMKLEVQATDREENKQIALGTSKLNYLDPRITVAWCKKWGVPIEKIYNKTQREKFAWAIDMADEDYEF

IC50 [1]: > 10 µM
SMILES: CCc1c2c(nc3ccc(OC(=O)N4CCC(N5CCCCC5)CC4)cc13)-c1cc3c(c(=O)n1C2)COC(=O)[C@]3(O)CC [IH, Irinotecan]
cell kill at the low doses tested [2]: no effect
cell kill at the low doses tested [3]: no effect
tumor growth ([4]; first experiment, IH 10 mg/kg i.v. twice weekly, 15 injections, Liposome:IH 1:1 for the complex): minimal effect on tumor growth
tumor growth ([4]; second experiment (fresh vs lyophilized), IH 10 mg/kg, Liposome:IH 1:1, 15 injections): only minimal effect

SMILES: N[C@@H](Cc1ccc(N(CCCl)CCCl)cc1)C(=O)O [MEL, melphalan]
IC50 [5]: 17.6 µM
IC50 [6]: 10.9 µM

SMILES: CCc1c2c(nc3ccc(O)cc13)-c1cc3c(c(=O)n1C2)COC(=O)[C@]3(O)CC [SN-38, 7-ethyl-10-hydroxy-camptothecin]
potency relative to parent compound irinotecan [7]: One thousand-fold more potent
